Measured values: paper PMC5999526 (Shock (Augusta, Ga.), 2018)
“Also recorded” adds a separate entry of the source.

What was measured:
[1] = target: purified human 20S immunoproteasome (LMP subunits), PA activity (Homo sapiens, UniProt P28065); assay: Purified proteasome fluorescence assay, PA activity, immunoproteasome; format: biochemical
[2] = target: purified human 20S proteasome (X, Y and Z), CT-like activity (Homo sapiens, UniProt P28074); format: biochemical
[3] = system: purified human 20S proteasome and immunoproteasome, T-like activity; assay: Purified proteasome fluorescence assay, T-like activity; format: biochemical
[4] = system: CD14+ human blood monocytes; assay: Cyto-ID autophagy detection assay, blood monocytes; format: cell-based; settings: 4h incubation, resveratrol 80 μM
[5] = system: T-like proteasome activity in THP1 cells; assay: Cell-based proteasome activity, luminescence assay; parameters: species or system human; settings: read-out: IC50, T-like activity (cellular), 30 min incubation
[6] = target: purified human 20S immunoproteasome (LMP7, LMP2 and LMP10), CT-like activity (Homo sapiens, UniProt P28062); assay: Purified proteasome fluorescence assay, CT-like activity, immunoproteasome; format: biochemical
[7] = target: purified human 20S proteasome, PA activity (Homo sapiens, UniProt P28072); assay: Purified proteasome fluorescence assay, PA activity, constitutive proteasome; format: biochemical
[8] = system: CD14+ human blood monocytes; assay: Gene expression by qRT-PCR in LPS-induced CD14+ monocytes; format: cell-based; settings: for expression of Bax / expression of Bcl2 / proteasome subunits RNA (X, Y, Z): resveratrol 80 μM or ONX-0914 0.25 μM; for LPS-induced atg7 expression / LPS-induced expression of resistin / expression of ICAM-1 / expression of IFNγ / expression of IL-8 / expression of LMP10 subunit / expression of Sirt-1 / expression of TNF-α / mRNA expression of LMP2 subunit / mRNA expression of LMP7 subunit: resveratrol 80 μM or ONX-0914 0.25 μM pretreatment 1h, LPS 10 ng/mL 4h; for proteasome subunits RNA (X, Y, Z): with LPS 10 ng/mL 4h
[9] = system: pIκBα in CD14+ human blood monocytes; assay: pIκBα protein levels by immunoblot; format: cell-based; settings: LPS 10 ng/ml-induced monocytes, resveratrol 80 μM or ONX-0914 0.25 μM, 60 min preincubation
THP1 cells = assay: Cyto-ID autophagy detection assay, THP1 cells; format: cell-based, human; settings: 4h incubation, resveratrol 80 μM, ONX-0914 0.25 μM
[10] = system: CT-like proteasome activity in THP1 cells; assay: Cell-based proteasome activity, luminescence assay; parameters: species or system human; settings: read-out: IC50, CT-like activity (cellular), 30 min incubation
monocytes = assay: MTT and LDH cell death assay; settings: 80 μM, human monocytes, MTT, LDH or autophagy tests
[11] = MTT and LDH cell death assay; settings: human
[12] = system: PA proteasome activity in THP1 cells; assay: Cell-based proteasome activity, luminescence assay; parameters: species or system human; settings: read-out: IC50, PA activity (cellular), 30 min incubation
[13] = system: purified human 20S proteasome and immunoproteasome, PA activity; assay: Purified proteasome fluorescence assay, PA activity; format: biochemical; settings: 50 μM dose, cell-free

Structure (SMILES): Oc1ccc(C=Cc2cc(O)cc(O)c2)cc1 [resveratrol, 3,5, 4′-trihydroxystilbene]
- IC50 [1]: 40.8 µM
- IC50 [2]: 59.4 µM
- inhibition of T-like activity ([3]; 100 μM dose, cell-free): 33%
- induction of autophagy [4]: did not induce autophagy
- IC50 [5]: 5 µM
- IC50 [6]: 39.8 µM
- IC50 [7]: 52.9 µM
- expression of Bax [8]: no change; also recorded: didn’t notice any effect
- expression of Bcl2 [8]: no change; also recorded: didn’t notice any effect
- LPS-induced atg7 expression [8]: downregulated
- LPS-induced expression of resistin [8]: decreased
- expression of ICAM-1 [8]: significantly downregulated
- expression of IFNγ [8]: significantly downregulated
- expression of IL-8 [8]: significantly downregulated
- expression of LMP10 subunit [8]: no significant change
- expression of Sirt-1 [8]: no significant upregulation
- expression of TNF-α [8]: significantly downregulated
- mRNA expression of LMP2 subunit [8]: robust decrease
- mRNA expression of LMP7 subunit [8]: robust decrease
- proteasome subunits RNA (X, Y, Z) [8]: did not observe a significant change
- expression of beclin1, eIF2α, p53 and hdac6 genes ([8]; resveratrol 80 μM, with or without LPS 10 ng/mL): no significant change
- degradation of pIκBα protein [9]: inhibited degradation of pIκBα protein levels
- induction of autophagy (THP1 cells): did not induce autophagy
- IC50 [10]: 1.9 µM
- cell death (monocytes): no cell death was observed
- viability at 4 h, 100 μM [11]: > 90%
- IC50 [12]: 1.37 µM

Structure (SMILES): COc1ccc(C[C@H](NC(=O)[C@H](C)NC(=O)CN2CCOCC2)C(=O)N[C@@H](Cc2ccccc2)C(=O)C2(C)CO2)cc1 (stereo in doubt) [ONX-0914, reference compound]
- inhibition of T-like activity ([3]; highest dose of ONX-0914, cell-free): didn’t observe any inhibition
- inhibition of PA activity [13]: 30%
- expression of Bax [8]: didn’t notice any effect
- expression of Bcl2 [8]: didn’t notice any effect
- LPS-induced atg7 expression [8]: but not by ONX-0914
- LPS-induced expression of resistin [8]: decreased
- expression of ICAM-1 [8]: significantly downregulated
- expression of IFNγ [8]: significantly downregulated
- expression of IL-8 [8]: significantly downregulated
- expression of LMP10 subunit [8]: no significant change
- expression of Sirt-1 [8]: no significant upregulation
- expression of TNF-α [8]: significantly downregulated
- mRNA expression of LMP2 subunit [8]: robust decrease
- mRNA expression of LMP7 subunit [8]: robust decrease
- proteasome subunits RNA (X, Y, Z) [8]: did not observe a significant change
- degradation of pIκBα protein [9]: inhibited pIκBα protein degradation
- induction of autophagy (THP1 cells): resulted in autophagy and vacuole accumulation
